From patent US20060094059A1, “Methods for identifying new drug leads and new therapeutic uses for known drugs” (Odyssey Thera, Inc., priority 2004, published 2006) come the findings set out here.

SMILES strings stand for the structures. Where a name gives a salt, the structure may show the parent alone. Read-outs that look alike come from different tables or passages of the source.

Assay [1] concerns pancreatic carcinoma (MIA PaCa-2) cells. Nature of the assay: MTT proliferation assay, pancreatic. The class given is cell-based, Human. The note with it: Homo sapiens, Tumor Cell Pancreatic (MIA PaCa-2), 120 hours, read-out: Anti-proliferative IC-50. As for the experimental part:
(§1) Cells were maintained in various media as follows: A549, LoVo and PC-3 (Ham's F12K medium with 2 mM L-glutamine and 1.5 g/L sodium bicarbonate), MIA PaCa-2 (Dulbecco's modified Eagle's medium with 4 mM L-glutamine and 4.5 g/L glucose), U87-MG (MEM+Earle's BSS). Medium for each cell line was supplemented with 10% FBS and […] Penecillin/Streptomycin. All cells were grown in incubators set at 37° C., 5% CO2. Thiazolyl Blue Tetrazolium Bromide (MTT) based proliferation assays were performed to assess the anti-proliferative activities of the compounds on these cells. Cells were seeded in 96 well plates at a density of 750 cells/well 24 hours prior to compound treatment. The cells were incubated with varying concentrations of compounds for 120 hours. […] Drug treatment was performed in 5 replicate wells. Background absorbance was established by wells containing medium but no cells. Vehicle (DMSO) only was used as control. MTT (Sigma-Aldrich, St. Louis, Mo.) was added to each well at a final concentration of 0.5 mg/ml. Following a 2 hour incubation at 37° C., medium in the wells was replaced with 0.15 ml DMSO. The plates were agitated for 15 min using a microtiter plate shaker.
In general terms: Formazan colour is commonly taken as a measure of viable cells.

The next assay deals with Ras:Raf complexes. Kind of assay: Protein-fragment complementation assay H-Ras:Raf. The assay is classed as cell-based, human. The note with it: for level of the Ras:Raf complexes (intensity of the fluorescence) / subcellular location of the Ras:Raf complexes: FIG. 3E; for level of the Ras:Raf complexes (intensity of the fluorescence): compared with the vehicle alone; for subcellular location of the Ras:Raf complexes: in control cells complexes localized at the cell membrane; for Assay activity: hit in Ras/Raf assay, drugs screened at 10 micromolar. The text has this:
(§2) To construct dynamic assays for protein-protein complexes, we used a protein-fragment complementation assay strategy (PCAs) in intact human cells. (A variety of other suitable assays, and reporter options, are described in detail below.) The principle of PCA is that complementary polypeptide fragments (F[1] and F[2]) of a reporter protein or enzyme will fold into an active form only if fused to two proteins which interact and bring the complementary fragments of the reporter protein into proximity. Reconstitution of the fragments of the reporter protein generates a fluorescent signal that can be quantified in intact cells, and the amount of the signal is proportional to the amount of the protein-protein complex used in constructing the assay. Given a suitable reporter type, the subcellular location of the complex can also be measured.
(§3) Reporter fragments for PCA were generated by oligonucleotide synthesis (Blue Heron Biotechnology, Bothell, Wash.), starting with the sequence of yellow fluorescent protein (YFP). First, oligonucleotides coding for polypeptide fragments YFP[1]and YFP[2] […] Next, PCR mutagenesis was used to generate the mutant fragments IFP[1] and IFP[2]. The IFP[1] fragment corresponds to YFP[1]-(F46L, F64L, M153T) and the IFP[2] fragment corresponds to YFP[2]-(V163A, S175G). […] The YFP[1], YFP[2], IFP[1] and IFP[2] fragments were amplified by PCR to incorporate restriction sites and a linker sequence, described below, in configurations that would allow fusion of a gene of interest to either the 5′- or 3′-end of each reporter fragment. The reporter-linker fragment cassettes were subcloned into a mammalian expression vector (pcDNA3.1Z, Invitrogen) that had been modified to incorporate the replication origin (oriP) of the Epstein Barr virus (EBV). […] Additionally, these vectors still retain the SV40 origin, allowing for episomal expression in cell lines expressing the SV40 large T antigen (e.g. HEK293T, Jurkat or COS).
(§4) PCA fusion constructs were prepared for a proteins known to participate in cellular pathways that have been described in the scientific literature as being linked to cancer. The selection of protein-protein complexes used, and the rationale for their use, is provided in Table 1 and the gene identifiers for the cDNAs used in assay construction are provided in Table 2. The full coding sequence for each gene of interest was amplified by PCR from a sequence-verified full-length cDNA. Resulting PCR products were column purified (Centricon), digested with appropriate restriction enzymes to allow directional cloning, and fused in-frame to either the 5′ or 3′-end of YFP[1], YFP[2], IFP[1] or IFP[2] through a linker encoding a flexible 10 amino acid peptide (Gly.Gly.Gly.Gly.Ser)2. […] Recombinants in the host strains DH5-alpha (Invitrogen, Carlsbad, Calif.) or XL1 Blue MR (Stratagene, La Jolla, Calif.) were screened by colony PCR, and clones containing inserts of the correct size were subjected to end sequencing to confirm the presence of the gene of interest and in-frame fusion to the appropriate reporter fragment. A subset of fusion constructs were selected for full-insert sequencing by primer walking. DNAs were isolated using Qiagen MaxiPrep kits (Qiagen, Chatsworth, Calif.). PCR was used to assess the integrity of each fusion construct, by combining the appropriate gene-specific primer with a reporter-specific primer to confirm that the correct gene-fusion was present and of the correct size with no internal deletions.
(§5) HEK293 cells were maintained in MEM alpha medium (Invitrogen) supplemented with 10% FBS (Gemini Bio-Products), 1% penicillin, and 1% streptomycin, and grown in a 37° C. incubator equilibrated to 5% CO2. […] Up to 100 ng of the complementary YFP or IFP-fragment fusion vectors were co-transfected using Fugene 6 (Roche) according to the manufacturer's protocol.

The subject of assay [2] is colon adenocarcinoma (LoVo) cells. Kind of assay: MTT proliferation assay, colon. The class given is cell-based, Human. The note with it: Homo sapiens, Tumor Cell Colon (LoVo), 120 hours, read-out: Anti-proliferative IC-50. The method, then: as §1
Assay [3] concerns glioblastoma (U-87 MG) cells. Nature of the assay: MTT proliferation assay, glioblastoma. The assay is classed as cell-based. The note with it: Homo sapiens, Tumor Cell Glioblastoma (U-87 MG), 120 hours, read-out: Anti-proliferative IC-50. As for the experimental part: as §1
The test system of assay [4] is prostate adenocarcinoma (PC-3) cells. Kind of assay: MTT proliferation assay, prostate. The class given is cell-based, Human. The note with it: for IC50: Homo sapiens, Tumor Cell Prostate (PC-3), MTT, 120 hours, read-out: Anti-proliferative IC-50. The method, then:
(§6) We used these methods to mine the known pharmacopeia for drugs with previously-unsuspected activity against cancer-related pathways. […] Hits from our cell-based screens were tested for antiproliferative activity in up to 5 different human tumor cell lines, as follows. First, drugs with significant activity in the cellular screen(s) were tested for their ability to block proliferation of a human tumor cell line (PC-3) at an initial concentration of 10 micromolar. For drugs with antiproliferative activity in PC-3 cells, dose-response curves to determine the IC50 for antiproliferative activity and additional tumor cell lines were tested to determine the breadth of activity. Methods for assessing the antiproliferative activity of the cell-based drug ‘hits’ are described below.
as §1

The subject of assay [5] is non-small cell lung carcinoma (A549) cells. Nature of the assay: MTT proliferation assay, NSCLC. The assay is classed as cell-based, Human. The note with it: Homo sapiens, Tumor Cell NSCLC (A549), 120 hours, read-out: Anti-proliferative IC-50. The method, then: as §1
A further assay concerns human tumor cell lines. Nature of the assay: MTT proliferation assay and phase contrast images, cell line not given (FIGS. 5-10). The assay is classed as cell-based. The note with it: treated cells vs. DMSO control, cell line not named. The method, then: as §6
Cells were maintained in various media as follows: A549, LoVo and PC-3 (Ham's F12K medium with 2 mM L-glutamine and 1.5 g/L sodium bicarbonate), MIA PaCa-2 (Dulbecco's modified Eagle's medium with 4 mM L-glutamine and 4.5 g/L glucose), U87-MG (MEM+Earle's BSS). Medium for each cell line was supplemented with 10% FBS and […] Penecillin/Streptomycin. All cells were grown in incubators set at 37° C., 5% CO2. Thiazolyl Blue Tetrazolium Bromide (MTT) based proliferation assays were performed to assess the anti-proliferative activities of the compounds on these cells. Cells were seeded in 96 well plates at a density of 750 cells/well 24 hours prior to compound treatment. The cells were incubated with varying concentrations of compounds for 120 hours. Compound concentrations range from 0.03 to 100 microM (half log increments) except for alpha-Tomatine (0.001-100 microM, half log increments), Neriifolin (0.0002-100 microM) and Peruvoside (0.01-100 microM). Drug treatment was performed in 5 replicate wells. Background absorbance was established by wells containing medium but no cells. Vehicle (DMSO) only was used as control. MTT (Sigma-Aldrich, St. Louis, Mo.) was added to each well at a final concentration of 0.5 mg/ml. Following a 2 hour incubation at 37° C., medium in the wells was replaced with 0.15 ml DMSO. The plates were agitated for 15 min using a microtiter plate shaker. […] Mean absorbance values were calculated from 5 replicate wells of each drug treatment following subtraction of background absorbance from blank samples and plotted as a percentage of control.

In another assay the test system is CDC42:PAK4 complexes. Nature of the assay: Protein-fragment complementation assay CDC42:PAK4. The assay is classed as cell-based, human. The note with it: for level of CDC42:PAK4 complexes (intensity of the fluorescence): FIG. 3F, compared with the vehicle alone.
Text: as §2, §3, §4, §5

The mark [6] stands for this setting: hit in CDC42/PAK4 assay, drugs screened at 10 micromolar.

With `CN(C)CCCN1c2ccccc2Sc2ccccc21` [Promazine], the IC50 in assay [1] is 5.13 µM; in assay [2] it was 13.9 µM; in assay [3] it was 16.4 µM; in assay [4], 13.9 µM; in assay [5], 13.9 µM. Further, the “level of the Ras:Raf complexes (intensity of the fluorescence)” value (shortened to “level of the Ras:Raf complexes”) in the assay with Ras:Raf complexes is listed as “decrease in the level”. In addition, the “subcellular location of the Ras:Raf complexes” value (shortened to “subcellular location”) in the assay with Ras:Raf complexes is “redistribution of the complexes to an intracellular structure”. In addition, in the assay with Ras:Raf complexes, the Assay activity result is “Ras/Raf”.

With `C(=C\c1ccccc1)/CN1CCN(C(c2ccccc2)c2ccccc2)CC1` [Cinnarizine], the “cell count (phase contrast images)” value with human tumor cell lines is on record as “decreased the cell count”.

With `Clc1ccccc1C(c1ccccc1)(c1ccccc1)n1ccnc1` [clotrimazole], the “cell count (phase contrast images)” value in the assay on human tumor cell lines is listed as “decreased the cell count”.

As for `CC/C(=C(\c1ccccc1)c1ccc(OCCN(C)C)cc1)c1ccccc1` [tamoxifen citrate], in the assay with Ras:Raf complexes, the “level of the Ras:Raf complexes” value is “decrease in the level” and the “subcellular location” value is “redistribution of the complexes to an intracellular structure”.

In the case of `CCCSc1ccc2nc(NC(=O)OC)[nH]c2c1` [Albendazole], the IC50 in assay [1] was found to be 0.18 µM; in assay [2], 0.14 µM; in assay [4], 0.3 µM; in assay [5], 0.24 µM. Besides, the Assay activity result in the assay with CDC42:PAK4 complexes is reported as “CDC42/PAK4”.

For `Oc1ccc(Cl)cc1Cc1cc(Cl)ccc1O` [Dichlorophene], the Assay activity entry with Ras:Raf complexes was “Ras/Raf”.

For the molecule `CC(C)COCC(CN(Cc1ccccc1)c1ccccc1)N1CCCC1` (stereo not drawn) [Bepridil], the values for the IC50 in assay [2], in assay [3] and in assay [4] were 3.68 µM, 5.75 µM and 8.69 µM, respectively. Also, the “level of CDC42:PAK4 complexes (intensity of the fluorescence)” value in the assay with CDC42:PAK4 complexes was “decrease in the level”. The Assay activity result in the assay with CDC42:PAK4 complexes (setting [6]) is on record as “CDC42/PAK4”.

For the molecule `Cc1cccc(Nc2cc(Cl)nc(SCC(=O)O)n2)c1C` [WY-14643], the “proliferation of PC-3 cells (MTT assay)” value in assay [4] (FIG. 4, compared to the DMSO control) is on record as “no effect on proliferation”.

As to `C[C@H]1CC[C@]2(NC1)O[C@H]1C[C@H]3[C@@H]4CC[C@H]5C[C@@H](O[C@@H]6O[C@H](CO)[C@H](O[C@@H]7O[C@H](CO)[C@@H](O)[C@H](O[C@@H]8OC[C@@H](O)[C@H](O)[C@H]8O)[C@H]7O[C@@H]7O[C@H](CO)[C@@H](O)[C@H](O)[C@H]7O)[C@H](O)[C@H]6O)CC[C@]5(C)[C@H]4CC[C@]3(C)[C@H]1[C@@H]2C` [Tomatine], the IC50 in assay [1] was found to be 0.131 µM; in assay [2], 0.097 µM; in assay [4], 0.09 µM; in assay [5], 0.092 µM. Moreover, the Assay activity entry with CDC42:PAK4 complexes (setting [6]) is given as “Cdc42/PAK4”.

As for `CCN(CC)CCOc1ccc(C(=C(Cl)c2ccccc2)c2ccccc2)cc1` [Clomiphene], the Assay activity entry with Ras:Raf complexes is listed as “Ras/Raf”.

`CN1C[C@H](CNC(=O)OCc2ccccc2)C[C@@H]2c3cccc4c3c(cn4C)C[C@H]21` [Metergoline]: the IC50 was 3.35 µM in assay [1]; 6.97 µM in assay [2]; 4.6 µM in assay [3]; 6.19 µM in assay [4]; 5.4 µM in assay [5]. The “level of the Ras:Raf complexes” value in the assay with Ras:Raf complexes was “decrease in the level”. In addition, in the assay with Ras:Raf complexes, the “subcellular location” value is “redistribution of the complexes to an intracellular structure”. Besides, the “level of CDC42:PAK4 complexes (intensity of the fluorescence)” value in the assay on CDC42:PAK4 complexes was “decrease in the level”. The Assay activity result in the assay on CDC42:PAK4 complexes (setting [6]) is “CDC42/PAK4”.

Take `CNCCCN1c2ccccc2CCc2ccccc21` [Desipramine]: in the assay on Ras:Raf complexes, the “level of the Ras:Raf complexes” value is listed as “decrease in the level”, the “subcellular location” value was “redistribution of the complexes to an intracellular structure” and the Assay activity entry is listed as “Ras/Raf”. For the same molecule, the IC50 in assay [2] was 10.6 µM. In addition, the IC50 in assay [3] turned out to be 6.9 µM. In assay [4], the IC50 was found to be 14.6 µM.

Consider `C[n+]1cc2c3c(ccc2c2ccc4cc5c(cc4c21)OCO5)OCO3` [Sanguinarine], for which the IC50 in assay [1] amounted to 0.18 µM; in assay [2] it was 0.81 µM; in assay [3], 0.34 µM; in assay [4], 0.33 µM; in assay [5] it was 0.78 µM.

Consider `COC(=O)[C@H]1[C@H]2C[C@H]3c4[nH]c5cc(OC)ccc5c4CCN3C[C@H]2C[C@@H](OC(=O)c2cc(OC)c(OC)c(OC)c2)[C@@H]1OC` [isoreserpine], for which the “cell count (phase contrast images)” value in the assay on human tumor cell lines was “decreased the cell count”.
